pKd: −log10 of the molar value.
Legend:
TrkC = TrkC (Homo sapiens, UniProt Q16288); assay: Surface Plasmon Resonance binding to immobilized TrkC; settings: SPR, 25° C., HBS-EP buffer pH 7.4, receptor immobilized on CM4 chip
Method: The TrkA, TrkB and TrkC receptors and p75^NTR were immobilized on a sensor chip, CM4, using an amine-coupling kit as follows: the chip was activated by 20 μl activation solution, N-hydroxysuccinimide, (NHS) and N-ethyl-N′-(3-[…])-carbodiimide (EDC), the protein was immobilized using 30 μl of a mixture of 4 μl (0.5 μg/ml) protein in 50 μl 10 mM sodium acetate buffer (pH 4.0); and the chip was blocked by 35 μl blocking solution (ethanolamine-HCl). The receptor surface was regenerated between ligand injections with 15 μl 2 mM NaCl or 10 mM glycine-HCl, pH 2.5. In the present experiments a flow rate of 5 μl/min was used.
The curve corresponding to the difference between binding to the Trk receptors or the […] receptor and a blank chip was used for analysis.

[1] = tested on: cerebellar granule neurons (CGN); assay: Neurite outgrowth of primary cerebellar granule neurons in culture; format: cell-based, rat; settings: CGN from 7 day old rats, peptide 3-81 μg/ml, 24 hours
Method: Dissociated cerebellar neurons were isolated from 7 day old rats. Cerebellum was isolated from the brain in ice cold modified Krebs Ringer solution, cleared of blood vessels, roughly homogenised by chopping and then trypsinised. The dissociated cells were washed in the presence of DNAse 1 and soybean trypsin inhibitor. Postnatal hippocampal neurons or cerebellar granule neurons (CGN) were plated at a density of 10,000 cells/cm^2 on uncoated 8-well permanox Lab-Tek chamber slides in Neurobasal medium supplemented with 0.4% (w/v) bovine serum albumin (BSA; Sigma-Aldrich), 2% (v/v) B27 Neurobasal supplement, 1% (v/v) glutamax, 100 U/ml penicillin, 100 μg/ml streptomycin and 2% 1 M HEPES (all from Gibco, BRL). After 24 hours, the neurons were fixed with 4% (v/v) formaldehyde for 20 minutes and thereafter immunostained using primary rabbit antibodies against GAP-43 and Alexa Fluor secondary goat anti-rabbit Ig antibodies. Images of at least 200 neurons for each group in each individual experiment were obtained systematically by computer assisted fluorescence microscopy as previously described (Rønn et al., 2000). Briefly, a Nikon Diaphot inverted microscope with a Nikon Plan 20× objective (Nikon, Tokyo, Japan) coupled to a video camera (Grundig Electronics, Germany) was used for recordings. A software package Prima developed at the Protein Laboratory (Copenhagen, Denmark) was used to make a stereologically based determination of neurite length (Rønn et al., 2000).
CGN prepared as described above were treated with different concentrations (3-81 μg/ml) of peptides NGF-C2, NGF-D, NGF-E, NGF-C1, NGF-EE, BDNF-E or BDNF-EE.

focal brain injury = assay: Traumatic brain injury model (focal cryo-lesion of right fronto-parietal cortex), immunohistochemistry; format: in vivo, rat; settings: lesioned rats, 10 mg/kg/injection subcutaneously on day (−1), 1 and 3
Method: A focal brain injury on the right fronto-parietal cortex was made by applying a piece of dry-ice (−78° C.) directly onto the skull for 30 seconds in mice and 60 seconds in rats, as previously described in details (Penkowa et al., 2003).
Histochemistry and immunohistochemistry were performed on sections cut from organs taken from fixated animals. Rats and mice were deeply anesthetized with Brietal and flushed by cardiac perfusion with saline containing heparine (0.9% NaCl, 3 ml/L 5000 IU heparine) for 2 minutes followed by fixation with Zamboni's fixative (pH 7.4) for 4-8 minutes depending on the size of the animal. For immunohistochemical investigation, brain were dissected and postfixed in Zamboni's for 2-3 hours, dehydraded in graded alcohol followed by xylol and subsequently embedded in paraffin before being cut in 3 μm frontal sections throughout the entire area of the cryo lesion. […]
Following treatment as described above, sections were incubated overnight at 5° C. with one of the following primary antibodies: polyclonal rabbit anti-cow glial fibrillary acidic protein (GFAP) 1:250 (a marker for astrocytes; DakoCytomation); monoclonal mouse anti-8-hydroxydeoxyguanosine (8-OH-dG) diluted 1:100 in goat serum (a marker for DNA oxidation; Chemicon, Temacula, Calif., USA). The primary antibody was detected with biotynilated secondary antibodies, incubated with streptavidin-biotin-peroxidase complex for 30 min. […]
In vivo experiments—A focal brain injury on the right fronto-parietal cortex was made by applying a piece of dry-ice (−78° C.) directly onto the skull for 30 seconds in mice and 60 seconds in rats, as previously described in details (Penkowa et al., 2003). […] The primary antibody was detected with biotynilated secondary antibodies, incubated with streptavidin-biotin-peroxidase complex for 30 min. […]

Chain of TrkC (Q16288 32-839, species assumed): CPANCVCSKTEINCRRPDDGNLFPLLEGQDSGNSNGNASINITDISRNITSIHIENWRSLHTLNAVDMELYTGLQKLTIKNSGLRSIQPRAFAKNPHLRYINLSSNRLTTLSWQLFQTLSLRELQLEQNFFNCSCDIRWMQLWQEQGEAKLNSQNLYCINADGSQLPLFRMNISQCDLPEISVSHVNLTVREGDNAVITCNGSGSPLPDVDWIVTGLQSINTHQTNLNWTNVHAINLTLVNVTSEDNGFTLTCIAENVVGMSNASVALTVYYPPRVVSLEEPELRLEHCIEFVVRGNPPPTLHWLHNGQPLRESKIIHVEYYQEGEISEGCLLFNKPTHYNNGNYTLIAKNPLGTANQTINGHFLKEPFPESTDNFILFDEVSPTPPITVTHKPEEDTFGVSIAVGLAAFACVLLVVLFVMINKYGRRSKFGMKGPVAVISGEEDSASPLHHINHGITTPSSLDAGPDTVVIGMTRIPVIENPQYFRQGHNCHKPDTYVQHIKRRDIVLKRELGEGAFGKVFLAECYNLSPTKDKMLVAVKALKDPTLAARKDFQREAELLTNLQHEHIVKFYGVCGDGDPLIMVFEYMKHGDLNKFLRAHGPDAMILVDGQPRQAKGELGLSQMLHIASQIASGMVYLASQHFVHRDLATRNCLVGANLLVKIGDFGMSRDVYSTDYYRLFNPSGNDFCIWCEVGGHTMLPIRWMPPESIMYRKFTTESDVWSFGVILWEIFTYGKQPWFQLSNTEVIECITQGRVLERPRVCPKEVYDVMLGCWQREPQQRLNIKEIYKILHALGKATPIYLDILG

Substance	neurite outgrowth from primary neurons in culture [1]	also measured
BDNF: Brain-derived neurotrophic factor, member of the neurotrophin family, reference ligand in SPR	–	pKd (TrkC): 7.85
H-CVLSRKAVRRA-OH [NGF-C2]	significantly stimulate neurite outgrowth	–
H-RGIDKRHWNSQ-OH [BDNF-E]	significantly stimulate neurite outgrowth	–
H-RGIDSKHWNSY-OH [NGF-E]	significantly stimulate neurite outgrowth	–
H-SYVRALTMDSKKRIGWR-OH [BDNF-EE]	significantly stimulate neurite outgrowth	cortical astrocytes as reflected by immunostaining for GFAP (focal brain injury): activation of cortical astrocytes; microglia activation as reflected by binding of tomato lectin (focal brain injury): inhibition of microglia activation; oxidative stress as reflected by immunostaining for 8-hydroxydeoxyguanosine (focal brain injury): inhibition of oxidative stress
H-TFVKALTMDGKQAAWR-OH [NGF-EE]	significantly stimulate neurite outgrowth	–
NGF-D: NGF-derived peptide, amino acids 2-14 of SEQ ID NO: 1 (YETKCRDPNPVDSG); lacks the hydrophobic residue of motif I (listed as Homo sapiens)	does not have neuritogenic activity	–
RIDTACV (listed as Homo sapiens) [NGF-C1, NGF-derived peptide, motif I]	significantly stimulate neurite outgrowth	–

From patent US8008259B2, “Neurotrophin-derived peptide sequences” (Copenhagen University, Techtrans Unit, priority 2005, dated 2011)
